Measurements: patent US7517874B2 (priority 2007, dated 2009)
Where two headings read alike, the source gives them in different places.

Experiments:
[1] = target: human CB1 receptor (hCB1) (Homo sapiens, UniProt P21554); assay: cell-based; format: cell-based
Procedure, shortened: (§1)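 Agonism or inverse agonism was assessed as change in intracellular cAMP in CHO-K1 cells expressing human CB1 or rat CB2 (genomic DNA, pcDNA3.1).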

rat CB2 receptor (rCB2) = target: T1, rat CB2 receptor (rCB2) (Rattus norvegicus, UniProt Q9QZN9); assay: cell-based; format: cell-based; details: for +/− RCB2: agonist or inverse agonist at rCB2
T1 sequence (Q9QZN9 1-360): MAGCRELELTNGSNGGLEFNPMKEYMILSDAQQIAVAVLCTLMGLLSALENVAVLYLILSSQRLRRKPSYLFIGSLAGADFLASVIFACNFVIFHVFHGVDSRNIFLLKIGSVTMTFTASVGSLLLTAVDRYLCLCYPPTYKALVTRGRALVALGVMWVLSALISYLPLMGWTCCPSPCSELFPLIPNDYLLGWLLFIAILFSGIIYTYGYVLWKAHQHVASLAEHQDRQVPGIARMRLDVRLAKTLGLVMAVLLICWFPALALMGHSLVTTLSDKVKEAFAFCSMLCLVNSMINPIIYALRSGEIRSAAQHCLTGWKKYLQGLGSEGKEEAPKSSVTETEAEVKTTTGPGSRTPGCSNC
Procedure, shortened: as §1

[2] = groups >100 nM-10 μM and >10 μM, cAMP, CHO-K1 hCB1, read-out: EC50 HCB1

human CB1 receptor (hCB1), sequence (P21554 whole entry): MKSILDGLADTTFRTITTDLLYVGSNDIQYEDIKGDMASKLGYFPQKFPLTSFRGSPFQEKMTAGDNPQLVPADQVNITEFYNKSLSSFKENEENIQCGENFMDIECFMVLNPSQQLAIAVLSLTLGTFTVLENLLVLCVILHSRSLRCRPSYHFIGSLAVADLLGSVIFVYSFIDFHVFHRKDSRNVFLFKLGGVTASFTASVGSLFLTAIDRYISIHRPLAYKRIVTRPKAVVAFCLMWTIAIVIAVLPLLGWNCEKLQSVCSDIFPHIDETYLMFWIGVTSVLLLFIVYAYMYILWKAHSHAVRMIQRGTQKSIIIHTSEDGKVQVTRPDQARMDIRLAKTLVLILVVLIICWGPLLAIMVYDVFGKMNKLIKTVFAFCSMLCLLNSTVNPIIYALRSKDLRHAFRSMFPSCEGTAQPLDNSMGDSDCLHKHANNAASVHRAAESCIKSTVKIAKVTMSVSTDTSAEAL

SMILES | EC50 [1] | +/− RCB2 (rat CB2 receptor (rCB2)) | EC50 (rat CB2 receptor (rCB2)) | EC50 [1, 2]
CC(C)CN1CCn2c(-c3ccccc3)nc(C(=O)N[C@H](C)C(C)(C)C)c2C1 [Compound 52, (R)-N-(3,3-dimethylbutan-2-yl)-7-isobutyl-3-phenyl-5,6,7,8-tetrahydroimidazo[1,5-a]pyrazine-1-carboxamide] | > 10000 nM | − |  | 
CC(C)CN1CCn2c(-c3ccccc3)nc(C(=O)N[C@@H](C)C(C)(C)C)c2C1 [Compound 53, (S)-N-(3,3-dimethylbutan-2-yl)-7-isobutyl-3-phenyl-5,6,7,8-tetrahydroimidazo[1,5-a]pyrazine-1-carboxamide] | > 10000 nM | − |  | 
CNC(=O)[C@@H](NC(=O)c1nc(-c2ccccc2)n2c1CN(CCC(C)(C)C)CC2)C(C)(C)C [Compound 54, (S)-N-(3,3-dimethyl-1-(methylamino)-1-oxobutan-2-yl)-7-(3,3-dimethylbutan)-3-phenyl-5,6,7,8-tetrahydroimidazo[1,5-a]pyrazine-1-carboxamide] | > 10000 nM | − |  | 
CNC(=O)[C@@H](NC(=O)c1nc(-c2ccccc2)n2c1CN(CC(C)(C)C)CC2)C(C)(C)C [Compound 55, (S)-N-(3,3-dimethyl-1-(methylamino)-1-oxobutan-2-yl)-7-neopentyl-3-phenyl-5,6,7,8-tetrahydroimidazo[1,5-a]pyrazine-1-carboxamide] | > 10000 nM | − |  | 
CNC(=O)[C@@H](NC(=O)c1nc(-c2ccccc2)n2c1CN(CC1CC1)CC2)C(C)(C)C [Compound 56, (S)-7-(cyclopropylmethyl)-N-(3,3-dimethyl-1-(methylamino)-1-oxobutan-2-yl)-3-phenyl-5,6,7,8-tetrahydroimidazo[1,5-a]pyrazine-1-carboxamide] | > 10000 nM | − |  | 
CN1CCn2c(-c3ccccc3)nc(C(=O)NCC(C)(C)C)c2C1 [Compound 57, 7-methyl-N-neopentyl-3-phenyl-5,6,7,8-tetrahydroimidazo[1,5-a]pyrazine-1-carboxamide] | > 10000 nM |  | > 10 µM | 
CC(C)CN1CCn2c(-c3ccccc3)nc(C(=O)NCC(C)(C)C)c2C1 [Compound 58, 7-isobutyl-N-neopentyl-3-phenyl-5,6,7,8-tetrahydroimidazo[1,5-a]pyrazine-1-carboxamide] | > 10000 nM | − |  | 
CN1CCn2c(-c3ccccc3)nc(C(=O)N[C@H](CO)C(C)(C)C)c2C1 [Compound 59, (S)-N-(1-hydroxy-3,3-dimethylbutan-2-yl)-7-methyl-3-phenyl-5,6,7,8-tetrahydroimidazo[1,5-a]pyrazine-1-carboxamide] | > 10000 nM |  | > 10 µM | 
CC(C)CN1CCn2c(-c3ccccc3)nc(C(=O)N[C@H](CO)C(C)(C)C)c2C1 [Compound 60, (S)-N-(1-hydroxy-3,3-dimethylbutan-2-yl)-7-isobutyl-3-phenyl-5,6,7,8-tetrahydroimidazo[1,5-a]pyrazine-1-carboxamide] | > 10000 nM | − |  | 
CNC(=O)[C@@H](NC(=O)c1nc(-c2ccccc2)n2c1CN(Cc1ccccc1)CC2)C(C)(C)C [Compound 61, (S)-7-benzyl-N-(3,3-dimethyl-1-(methylamino)-1-oxobutan-2-yl)-3-phenyl-5,6,7,8-tetrahydroimidazo[1,5-a]pyrazine-1-carboxamide] | > 10000 nM |  | > 10 µM | 
CNC(=O)[C@@H](NC(=O)c1nc(-c2ccccc2)n2c1CN(Cc1cncnc1)CC2)C(C)(C)C [Compound 62, (S)-N-(3,3-dimethyl-1-(methylamino)-1-oxobutan-2-yl)-3-phenyl-7-(pyrimidin-5-ylmethyl)-5,6,7,8-tetrahydroimidazo[1,5-a]pyrazine-1-carboxamide] | > 10000 nM | − |  | 
CNC(=O)[C@@H](NC(=O)c1nc(-c2ccccc2)n2c1CN(Cc1cccnc1)CC2)C(C)(C)C [Compound 63, (S)-N-(3,3-dimethyl-1-(methylamino)-1-oxobutan-2-yl)-3-phenyl-7-(pyridin-3-ylmethyl)-5,6,7,8-tetrahydroimidazo[1,5-a]pyrazine-1-carboxamide] | > 10000 nM |  | > 10 µM | 
CNC(=O)[C@@H](NC(=O)c1nc(-c2ccccc2)n2c1CN(Cc1ccco1)CC2)C(C)(C)C [Compound 64, (S)-N-(3,3-dimethyl-1-(methylamino)-1-oxobutan-2-yl)-7-(furan-2-ylmethyl)-3-phenyl-5,6,7,8-tetrahydroimidazo[1,5-a]pyrazine-1-carboxamide] | > 10000 nM | − |  | 
CNC(=O)[C@@H](NC(=O)c1nc(-c2ccccc2)n2c1CN(Cc1ccnn1C)CC2)C(C)(C)C [Compound 65, (S)-N-(3,3-dimethyl-1-(methylamino)-1-oxobutan-2-yl)-7-((1-methyl-1H-pyrazol-5-yl)methyl)-3-phenyl-5,6,7,8-tetrahydroimidazo[1,5-a]pyrazine-1-carboxamide] | > 10000 nM |  | > 10 µM | 
CNC(=O)[C@@H](NC(=O)c1nc(-c2ccccc2)n2c1CN(Cc1cnn(C)c1)CC2)C(C)(C)C [Compound 66, (S)-N-(3,3-dimethyl-1-(methylamino)-1-oxobutan-2-yl)-7-((1-methyl-1H-pyrazol-4-yl)methyl)-3-phenyl-5,6,7,8-tetrahydroimidazo[1,5-a]pyrazine-1-carboxamide] | > 10000 nM | + |  | 
CN1CCn2c(-c3ccccc3)nc(C(=O)N[C@@H](CO)C(C)(C)C)c2C1 [Compound 67, (R)-N-(1-hydroxy-3,3-dimethylbutan-2-yl)-7-methyl-3-phenyl-5,6,7,8-tetrahydroimidazo[1,5-a]pyrazine-1-carboxamide] | > 10000 nM |  | > 10 µM | 
CC(C)CN1CCn2c(-c3ccccc3)nc(C(=O)N[C@@H](CO)C(C)(C)C)c2C1 [Compound 68, (R)-N-(1-hydroxy-3,3-dimethylbutan-2-yl)-7-isobutyl-3-phenyl-5,6,7,8-tetrahydroimidazo[1,5-a]pyrazine-1-carboxamide] | > 10000 nM | − |  | 
CN1CCn2c(-c3ccccc3)nc(C(=O)N3CCOCC3)c2C1 [Compound 69, (7-methyl-3-phenyl-5,6,7,8-tetrahydroimidazo[1,5-a]pyrazin-1-yl)(morpholino)methanone] |  | − |  | > 10000 nM
CC(C)CN1CCn2c(-c3ccccc3)nc(C(=O)N3CCOCC3)c2C1 [Compound 70, (7-isobutyl-3-phenyl-5,6,7,8-tetrahydroimidazo[1,5-a]pyrazin-1-yl)(morpholino)methanone] |  | − |  | > 10000 nM
CNC(=O)[C@@H](NC(=O)c1nc(-c2ccccc2)n2c1CN(Cc1cccn1C)CC2)C(C)(C)C [Compound 71, (S)-N-(3,3-dimethyl-1-(methylamino)-1-oxobutan-2-yl)-7-((1-methyl-1H-pyrrol-2-yl)methyl)-3-phenyl-5,6,7,8-tetrahydroimidazo[1,5-a]pyrazine-1-carboxamide] | > 10000 nM | − |  | 
CNC(=O)[C@@H](NC(=O)c1nc(-c2ccccc2)n2c1CN(Cc1nccs1)CC2)C(C)(C)C [Compound 72, (S)-N-(3,3-dimethyl-1-(methylamino)-1-oxobutan-2-yl)-3-phenyl-7-(thiazol-2-ylmethyl)-5,6,7,8-tetrahydroimidazo[1,5-a]pyrazine-1-carboxamide] | > 10000 nM |  | > 10 µM | 
CNC(=O)[C@@H](NC(=O)c1nc(-c2csc3ccccc23)n2c1CN(C)CC2)C(C)(C)C [Compound 75, (S)-3-(benzo[b]thiophen-3-yl)-N-(3,3-dimethyl-1-(methylamino)-1-oxobutan-2-yl)-7-methyl-5,6,7,8-tetrahydroimidazo[1,5-a]pyrazine-1-carboxamide] | > 10000 nM | + |  | 
CNC(=O)[C@@H](NC(=O)c1nc(-c2ccsc2)n2c1CN(Cc1cncnc1)CC2)C(C)(C)C [Compound 76, (S)-N-(3,3-dimethyl-1-(methylamino)-1-oxobutan-2-yl)-7-(pyrimidin-5-ylmethyl)-3-(thiophen-3-yl)-5,6,7,8-tetrahydroimidazo[1,5-a]pyrazine-1-carboxamide] | > 10000 nM | + |  | 
CNC(=O)[C@H](C)NC(=O)c1nc(-c2ccccc2)n2c1CN(Cc1cncnc1)CC2 [Compound 77, (S)-N-(1-(methylamino)-1-oxopropan-2-yl)-3-phenyl-7-(pyrimidin-5-ylmethyl)-5,6,7,8-tetrahydroimidazo[1,5-a]pyrazine-1-carboxamide] | > 10000 nM |  | > 10 µM | 
CN1CCn2c(-c3ccccc3)nc(C(=O)N[C@H](C(=O)N(C)C)C(C)(C)C)c2C1 [Compound 79, (S)-N-(1-(dimethylamino)-3,3-dimethyl-1-oxobutan-2-yl)-7-methyl-3-phenyl-5,6,7,8-tetrahydroimidazo[1,5-a]pyrazine-1-carboxamide] | > 10000 nM | − |  | 
CC(C)CN1CCn2c(-c3ccccc3)nc(C(=O)N[C@H](C(=O)N(C)C)C(C)(C)C)c2C1 [Compound 80, (S)-N-(1-(dimethylamino)-3,3-dimethyl-1-oxobutan-2-yl)-7-isobutyl-3-phenyl-5,6,7,8-tetrahydroimidazo[1,5-a]pyrazine-1-carboxamide] | > 10000 nM | − |  | 
